Legend:
[1] = biological target: Epidermal growth factor receptor (Homo sapiens, UniProt P00533, EX19DEL); assay: Inhibition of EGFR del19 (unknown origin) using flurogenic substrate in presence of ATP by HTRF assay
[2] = test system: NCI-H1975; assay: cells; format: functional, cell-based; conditions: Homo sapiens, NCI-H1975, 72 h
[3] = test system: A549; assay: Antiproliferative activity against human A549 cells expressing wild type EGFR assessed as inhibition in cell viability after 72 hrs by CCK8 assay; format: functional, cell-based; conditions: A549, 72 h
[4] = test system: NCI-H1299; assay: Induction of cell cycle arrest in human NCI-H1299 cells assessed as accumulation at G0/G1 phase at 0.02 uM after 36 hrs by PI staining based flow cytometry analysis (reference value: 70.2%); format: functional
[5] = test system: NCI-H1299; assay: Induction of cell cycle arrest in human NCI-H1299 cells assessed as accumulation at G2/M phase at 0.02 uM after 36 hrs by PI staining based flow cytometry analysis (reference value: 5.6%); format: functional
[6] = test system: NCI-H1299; assay: Induction of cell cycle arrest in human NCI-H1299 cells assessed as accumulation at S phase at 0.02 uM after 36 hrs by PI staining based flow cytometry analysis (reference value: 24.8%); format: functional
[7] = test system: NCI-H1299; assay: Induction of cell cycle arrest in human NCI-H1299 cells assessed as accumulation at G0/G1 phase at 0.1 uM after 36 hrs by PI staining based flow cytometry analysis (reference value: 70.2%); format: functional
[8] = test system: NCI-H1299; assay: Induction of cell cycle arrest in human NCI-H1299 cells assessed as accumulation at G2/M phase at 0.1 uM after 36 hrs by PI staining based flow cytometry analysis (reference value: 5.6%); format: functional
[9] = test system: NCI-H1299; assay: Induction of cell cycle arrest in human NCI-H1299 cells assessed as accumulation at S phase at 0.1 uM after 36 hrs by PI staining based flow cytometry analysis (reference value: 24.8%); format: functional
[10] = test system: NCI-H1299; assay: Induction of cell cycle arrest in human NCI-H1299 cells assessed as accumulation at G2/M phase at 0.5 uM after 36 hrs by PI staining based flow cytometry analysis (reference value: 5.6%); format: functional
[11] = test system: NCI-H1299; assay: Induction of cell cycle arrest in human NCI-H1299 cells assessed as accumulation at S phase at 2.5 uM after 36 hrs by PI staining based flow cytometry analysis (reference value: 24.8%); format: functional
[12] = test system: NCI-H1975; assay: Induction of cell cycle arrest in human NCI-H1975 cells assessed as accumulation at G0/G1 phase at 0.02 uM after 36 hrs by PI staining based flow cytometry analysis (reference value: 24.2%); format: functional
[13] = test system: NCI-H1975; assay: Induction of cell cycle arrest in human NCI-H1975 cells assessed as accumulation at G2/M phase at 0.02 uM after 36 hrs by PI staining based flow cytometry analysis (reference value: 43.1%); format: functional
[14] = test system: NCI-H1975; assay: Induction of cell cycle arrest in human NCI-H1975 cells assessed as accumulation at S phase at 0.02 uM after 36 hrs by PI staining based flow cytometry analysis (reference value: 32.7 %); format: functional
[15] = test system: NCI-H1975; assay: Induction of cell cycle arrest in human NCI-H1975 cells assessed as accumulation at G0/G1 phase at 0.5 uM after 36 hrs by PI staining based flow cytometry analysis (reference value: 24.2%); format: functional
[16] = test system: NCI-H1975; assay: Induction of cell cycle arrest in human NCI-H1975 cells assessed as accumulation at S phase at 0.5 uM after 36 hrs by PI staining based flow cytometry analysis (reference value: 32.7 %); format: functional
[17] = test system: NCI-H1975; assay: Induction of cell cycle arrest in human NCI-H1975 cells assessed as accumulation at G0/G1 phase at 2.5 uM after 36 hrs by PI staining based flow cytometry analysis (reference value: 24.2%); format: functional
[18] = test system: NCI-H1975; assay: Induction of cell cycle arrest in human NCI-H1975 cells assessed as accumulation at S phase at 2.5 uM after 36 hrs by PI staining based flow cytometry analysis (reference value: 32.7 %); format: functional
[19] = test system: NCI-H1299; assay: Induction of apoptosis in human NCI-H1299 cells assessed as increase in viable cells at 0.1 uM after 36 hrs by annexin-V-FITC/PI staining based flow cytometric analysis (reference value: 94.1%); format: functional
[20] = test system: NCI-H1299; assay: Induction of apoptosis in human NCI-H1299 cells assessed as increase in necrotic cells at 0.1 uM after 36 hrs by annexin-V-FITC/PI staining based flow cytometric analysis (reference value: 0.75%); format: functional
[21] = test system: NCI-H1299; assay: Induction of apoptosis in human NCI-H1299 cells assessed as increase in early apoptotic cells at 0.5 uM after 36 hrs by annexin-V-FITC/PI staining based flow cytometric analysis (reference value: 0.79%); format: functional
[22] = test system: NCI-H1299; assay: Induction of apoptosis in human NCI-H1299 cells assessed as increase in late apoptotic cells at 0.5 uM after 36 hrs by annexin-V-FITC/PI staining based flow cytometric analysis (reference value: 4.39%); format: functional
[23] = test system: NCI-H1299; assay: Induction of apoptosis in human NCI-H1299 cells assessed as increase in early apoptotic cells at 2.5 uM after 36 hrs by annexin-V-FITC/PI staining based flow cytometric analysis (reference value: 0.79%); format: functional
[24] = test system: NCI-H1299; assay: Induction of apoptosis in human NCI-H1299 cells assessed as increase in late apoptotic cells at 2.5 uM after 36 hrs by annexin-V-FITC/PI staining based flow cytometric analysis (reference value: 4.39%); format: functional
[25] = test system: NCI-H1975; assay: Induction of apoptosis in human NCI-H1975 cells assessed as increase in early apoptotic cells at 0.02 uM after 36 hrs by annexin-V-FITC/PI staining based flow cytometric analysis (reference value: 1.24%); format: functional
[26] = test system: NCI-H1975; assay: Induction of apoptosis in human NCI-H1975 cells assessed as increase in viable cells at 0.1 uM after 36 hrs by annexin-V-FITC/PI staining based flow cytometric analysis (reference value: 94.6%); format: functional
[27] = test system: NCI-H1975; assay: Induction of apoptosis in human NCI-H1975 cells assessed as increase in late apoptotic cells at 0.1 uM after 36 hrs by annexin-V-FITC/PI staining based flow cytometric analysis (reference value: 3.85%); format: functional
[28] = test system: NCI-H1975; assay: Induction of apoptosis in human NCI-H1975 cells assessed as increase in necrotic cells at 0.1 uM after 36 hrs by annexin-V-FITC/PI staining based flow cytometric analysis (reference value: 0.35%); format: functional
[29] = test system: NCI-H1975; assay: Induction of apoptosis in human NCI-H1975 cells assessed as increase in necrotic cells at 0.5 uM after 36 hrs by annexin-V-FITC/PI staining based flow cytometric analysis (reference value: 0.35%); format: functional
[30] = test system: NCI-H1975; assay: Induction of apoptosis in human NCI-H1975 cells assessed as increase in late apoptotic cells at 2.5 uM after 36 hrs by annexin-V-FITC/PI staining based flow cytometric analysis (reference value: 3.85%); format: functional
[31] = test system: NCI-H1975; assay: Induction of apoptosis in human NCI-H1975 cells assessed as increase in necrotic cells at 2.5 uM after 36 hrs by annexin-V-FITC/PI staining based flow cytometric analysis (reference value: 0.35%); format: functional
[32] = in vitro; conditions: human
[33] = in vitro; conditions: human; remark: listed apart in the source

Sequence of Epidermal growth factor receptor (P00533 whole entry, looked up, stated change not applied): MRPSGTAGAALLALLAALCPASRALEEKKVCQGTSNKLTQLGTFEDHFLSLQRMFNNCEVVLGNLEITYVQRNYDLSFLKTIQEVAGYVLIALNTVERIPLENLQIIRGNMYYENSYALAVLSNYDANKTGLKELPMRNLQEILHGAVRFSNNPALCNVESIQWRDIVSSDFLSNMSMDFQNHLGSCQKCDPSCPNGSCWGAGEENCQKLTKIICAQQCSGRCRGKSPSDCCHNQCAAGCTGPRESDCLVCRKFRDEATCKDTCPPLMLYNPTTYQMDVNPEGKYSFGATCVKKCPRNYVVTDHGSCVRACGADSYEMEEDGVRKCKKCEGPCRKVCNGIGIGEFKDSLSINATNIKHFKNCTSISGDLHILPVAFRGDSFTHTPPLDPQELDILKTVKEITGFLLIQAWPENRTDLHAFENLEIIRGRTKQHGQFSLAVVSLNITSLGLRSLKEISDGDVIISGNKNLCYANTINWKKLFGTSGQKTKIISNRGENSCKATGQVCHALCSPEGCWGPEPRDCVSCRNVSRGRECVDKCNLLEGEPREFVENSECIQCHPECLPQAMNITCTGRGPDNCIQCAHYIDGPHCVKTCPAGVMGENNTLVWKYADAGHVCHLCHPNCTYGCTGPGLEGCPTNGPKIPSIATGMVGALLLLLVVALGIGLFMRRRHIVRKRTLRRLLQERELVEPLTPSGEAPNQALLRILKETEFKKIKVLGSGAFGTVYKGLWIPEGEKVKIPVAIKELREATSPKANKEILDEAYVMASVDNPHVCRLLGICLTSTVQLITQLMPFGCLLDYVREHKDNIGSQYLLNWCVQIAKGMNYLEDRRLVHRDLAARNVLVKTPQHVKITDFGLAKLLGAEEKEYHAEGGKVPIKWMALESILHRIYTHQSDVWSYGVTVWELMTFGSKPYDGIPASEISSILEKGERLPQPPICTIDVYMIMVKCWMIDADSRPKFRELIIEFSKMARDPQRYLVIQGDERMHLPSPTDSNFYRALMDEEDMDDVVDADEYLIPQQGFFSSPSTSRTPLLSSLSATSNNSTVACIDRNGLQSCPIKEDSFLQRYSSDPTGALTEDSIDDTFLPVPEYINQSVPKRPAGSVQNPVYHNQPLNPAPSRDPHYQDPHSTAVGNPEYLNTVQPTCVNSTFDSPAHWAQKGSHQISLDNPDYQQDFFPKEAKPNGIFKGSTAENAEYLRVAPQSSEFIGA

Compound: C#CCN(C)CCN(C)c1cc(OC)c(Nc2nccc(Nc3cn(C)c4ccccc34)n2)cc1NC(=O)C=C
- IC50 [1]: 9.57 nM
- IC50 [2]: 2.58 nM
- IC50 [3]: > 100000 nM
- Activity [4]: 70.4%
- Activity [5]: 6.8%
- Activity [6]: 23.8%
- Activity [7]: 70.6%
- Activity [8]: 5.7%
- Activity [9]: 23.7%
- Activity [10]: 6%
- Activity [11]: 24.7%
- Activity [12]: 22.5%
- Activity [13]: 50.2%
- Activity [14]: 27.3%
- Activity [15]: 18.3%
- Activity [16]: 19.1%
- Activity [17]: 17%
- Activity [18]: 18.4%
- Activity [19]: 92.6%
- Activity [20]: 0.63%
- Activity [21]: 1.01%
- Activity [22]: 5.63%
- Activity [23]: 0.95%
- Activity [24]: 6.35%
- Activity [25]: 1.98%
- Activity [26]: 92.2%
- Activity [27]: 3.3%
- Activity [28]: 0.019%
- Activity [29]: 0.021%
- Activity [30]: 7.25%
- Activity [31]: 0.012%
- selectivity ratio [32]: 38800
- selectivity ratio [33]: 27500

From ChEMBL document CHEMBL5046228 (Eur J Med Chem, 2022)
